Assay results published in patent US20220308043A1, “FLUORESCENT PROBES FOR IDENTIFICATION AND QUANTIFICATION OF HEPATIC TRANSPORTERS IN VITRO AND IN VIVO” (Université d'Orléans, priority 2021, published 2022).
“Also recorded” adds a separate entry of the source. Read-outs that look alike come from different tables or passages of the source.

Legend:
[1] = system: bile canaliculi (BC) of HEPARG® cells; test: Bile canaliculi alterations evaluation for cholestasis-DILI prediction in HEPARG® cells; format: cell-based, human; conditions: for alteration of bile canaliculi (BC) revealed by fluorescent probe 15: HEPARG® cells, probe 15, versus control cells incubated only with 15, FIG. 9
Protocol: To investigate the application of fluorescent probes for predicting drug-induced cholestasis, cholestatic effects of six reference cholestatic drugs are evaluated by using two protocols.

[2] = system: BC; conditions: cited from earlier work
[3] = system: Efflux transporters; conditions: cited from earlier work
[4] = system: primary human hepatocyte (PHH)
Protocol: Four batches of primary human hepatocyte (PHH) are used for in vitro uptake assay:
Cryopreserved PHH are thawed in one-step Hepatocyte Thawing/Plating medium (MIL130) and then cells number and viability were evaluated with trypan blue exclusion test prior to cell treatment.
Influx study. Cryopreserved PHH are thawed in one-step Hepatocyte Thawing/Plating medium (MIL130) and then the cell number and viability are evaluated with trypan blue exclusion test prior to cell treatment. The cells were grown in MW96 at a density of 0.2*10^6/well.
Incubation for uptake evaluation. Incubation buffer: HBSS buffer containing 10 mM Herpes and 0.1% BSA, pH 7.4
The active uptake of each probe was tested according to the Test group 1 conditions. The results are presented in the table below as the percentage of active uptake compared to total uptake.

[5] = molecular target: T1, NTCP (Homo sapiens, UniProt Q14973); test: Uptake evaluation, Test group 2: probe uptake in PHH with Myrcludex (NTCP inhibitor); format: in vitro ADME; conditions: PHH pre-incubated 20 minutes with inhibitor, probe 5 μM, 30 minutes at 37° C.
T1 construct: Cryopreserved PHH are thawed in one-step Hepatocyte Thawing/Plating medium; endogenous in cells; host or cells: cryopreserved primary human hepatocytes (PHH)
T1 sequence (Q14973 1-349): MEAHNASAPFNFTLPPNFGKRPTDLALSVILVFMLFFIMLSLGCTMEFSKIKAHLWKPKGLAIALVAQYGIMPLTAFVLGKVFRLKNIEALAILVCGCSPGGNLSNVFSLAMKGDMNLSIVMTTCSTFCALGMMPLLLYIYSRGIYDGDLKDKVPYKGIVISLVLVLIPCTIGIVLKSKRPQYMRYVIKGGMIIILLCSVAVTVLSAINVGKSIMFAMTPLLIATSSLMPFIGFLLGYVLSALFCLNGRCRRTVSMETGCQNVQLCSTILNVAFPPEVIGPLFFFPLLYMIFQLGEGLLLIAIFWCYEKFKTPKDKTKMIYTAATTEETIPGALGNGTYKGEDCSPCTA

[6] = system: OCT; test: Uptake evaluation, Test group 2: probe uptake in PHH with Mpp (OCT inhibitor); format: in vitro ADME, human; conditions: PHH pre-incubated 20 minutes with inhibitor, probe 5 μM, 30 minutes at 37° C.
[7] = system: OATPs; conditions: PHH pre-incubated 20 minutes with inhibitor, probe 5 μM, 30 minutes at 37° C.
[8] = system: OATs
[9] = molecular target: T2, MRP2 (Homo sapiens, UniProt Q92887)
T2 sequence (Q92887 whole entry): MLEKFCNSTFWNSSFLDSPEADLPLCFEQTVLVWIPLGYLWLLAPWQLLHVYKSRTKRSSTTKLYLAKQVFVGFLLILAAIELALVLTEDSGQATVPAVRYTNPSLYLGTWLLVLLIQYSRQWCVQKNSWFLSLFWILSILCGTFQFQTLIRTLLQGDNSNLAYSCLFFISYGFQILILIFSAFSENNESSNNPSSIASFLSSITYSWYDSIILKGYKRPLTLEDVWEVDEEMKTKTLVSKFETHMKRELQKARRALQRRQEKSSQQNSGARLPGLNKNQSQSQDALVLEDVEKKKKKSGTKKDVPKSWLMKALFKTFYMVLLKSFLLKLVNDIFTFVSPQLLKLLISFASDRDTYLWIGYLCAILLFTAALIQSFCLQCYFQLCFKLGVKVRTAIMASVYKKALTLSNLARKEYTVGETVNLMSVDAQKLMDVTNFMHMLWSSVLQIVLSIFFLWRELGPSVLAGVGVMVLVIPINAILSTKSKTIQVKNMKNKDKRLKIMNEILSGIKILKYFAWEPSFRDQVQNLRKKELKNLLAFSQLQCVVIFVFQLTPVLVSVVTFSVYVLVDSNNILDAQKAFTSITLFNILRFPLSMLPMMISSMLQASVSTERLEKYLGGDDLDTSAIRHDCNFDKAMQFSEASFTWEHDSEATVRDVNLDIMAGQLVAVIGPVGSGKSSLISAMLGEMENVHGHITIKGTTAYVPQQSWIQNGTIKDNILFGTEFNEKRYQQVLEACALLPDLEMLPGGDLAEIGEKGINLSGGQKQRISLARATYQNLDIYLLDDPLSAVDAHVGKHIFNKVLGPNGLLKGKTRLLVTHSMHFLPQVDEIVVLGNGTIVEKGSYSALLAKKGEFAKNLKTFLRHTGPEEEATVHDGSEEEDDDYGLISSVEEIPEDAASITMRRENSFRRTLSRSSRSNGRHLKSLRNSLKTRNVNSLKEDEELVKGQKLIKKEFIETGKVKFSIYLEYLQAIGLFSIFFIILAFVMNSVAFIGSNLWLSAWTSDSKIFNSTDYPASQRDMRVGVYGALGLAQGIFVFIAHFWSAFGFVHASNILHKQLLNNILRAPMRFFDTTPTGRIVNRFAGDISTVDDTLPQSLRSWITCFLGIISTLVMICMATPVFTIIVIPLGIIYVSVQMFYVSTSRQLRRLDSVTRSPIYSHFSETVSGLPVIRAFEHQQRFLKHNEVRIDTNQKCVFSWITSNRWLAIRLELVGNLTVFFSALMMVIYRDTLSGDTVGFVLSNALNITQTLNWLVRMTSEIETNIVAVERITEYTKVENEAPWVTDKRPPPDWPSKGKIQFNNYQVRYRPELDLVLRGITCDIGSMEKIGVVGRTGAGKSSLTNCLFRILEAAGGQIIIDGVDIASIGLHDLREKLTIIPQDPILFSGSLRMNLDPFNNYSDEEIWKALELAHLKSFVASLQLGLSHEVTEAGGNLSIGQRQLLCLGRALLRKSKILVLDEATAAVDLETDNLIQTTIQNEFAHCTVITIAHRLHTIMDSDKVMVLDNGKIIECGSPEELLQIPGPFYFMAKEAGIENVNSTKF
Protocol: (§2) Two HEPARG® cell lines are used as hepatic cell models for in vitro bile acid efflux assay.
(§3) Before the probe incubation assay, both differentiated HEPARG® wild-type and HEPARG® MRP2 KO cell cultures are washed once with Williams' Medium E (WME) with 0.1% BSA and then incubated with 1 to 5 μM of fluorescent probes (54, 55, 15) in WME with 0.1% BSA or 3 μM of CDFDA in WME at 37° C. for 30 min.
(§4) After incubation, the cell cultures are washed 4 times with WME medium containing 0.5% DMSO and 2% FBS.
(§5) The cell cultures are then observed with a fluorescence microscope and the cell images are taken and compared.
(§6) Both the differentiated wild-type HEPARG®™ and MPR2-KO HEPARG® cells are thawed in HEPARG® Thawing/Plating/General Purpose medium (MIL600/ADD670) and cultured in HEPARG® Maintenance/Metabolism Medium (MIL600/ADD620) (according to the user guide of Biopredic International). Fourteen to twenty days after cell seeding and maintenance, the fully differentiated and polarized cell cultures of both the wild-type and MRP2-KO HEPARG® cells are ready and used for the characterization of biological effects of fluorescent probes in term of specific Efflux Transporter-Mediated efflux of probes in the bile canaliculi of HEPARG® hepatocytes.

[10] = molecular target: T3, BSEP (Homo sapiens, UniProt O95342); test: Efflux assay approach 1: canalicular accumulation in wild-type HEPARG® hepatocytes with or without taurocholate (BSEP competitive inhibitor); format: cell-based; design: both uptake transporters and efflux transporters, such as BSEP, MRP2, Pgp and BCRP; host or cells: differentiated wild-type HepaRG hepatocytes; conditions: for dependence of efflux into BC on BSEP: conclusion in words; for probe fluorescence / accumulation in BC with taurocholate: taurocholate as competitive inhibitor of BSEP, 3 hours at 37° C., FIG. 4 image B, FIG. 5
Protocol: (§1) After washing with the WME containing 0.1% BSA, the cell cultures are then incubated with WME medium containing 0.1% BSA, with or without the different inhibitors (taurocholate, Verapamil, KO143) at the concentration indicated at the table E2 for 3 hours at 37° C.
Target sequence in this assay (O95342 whole entry): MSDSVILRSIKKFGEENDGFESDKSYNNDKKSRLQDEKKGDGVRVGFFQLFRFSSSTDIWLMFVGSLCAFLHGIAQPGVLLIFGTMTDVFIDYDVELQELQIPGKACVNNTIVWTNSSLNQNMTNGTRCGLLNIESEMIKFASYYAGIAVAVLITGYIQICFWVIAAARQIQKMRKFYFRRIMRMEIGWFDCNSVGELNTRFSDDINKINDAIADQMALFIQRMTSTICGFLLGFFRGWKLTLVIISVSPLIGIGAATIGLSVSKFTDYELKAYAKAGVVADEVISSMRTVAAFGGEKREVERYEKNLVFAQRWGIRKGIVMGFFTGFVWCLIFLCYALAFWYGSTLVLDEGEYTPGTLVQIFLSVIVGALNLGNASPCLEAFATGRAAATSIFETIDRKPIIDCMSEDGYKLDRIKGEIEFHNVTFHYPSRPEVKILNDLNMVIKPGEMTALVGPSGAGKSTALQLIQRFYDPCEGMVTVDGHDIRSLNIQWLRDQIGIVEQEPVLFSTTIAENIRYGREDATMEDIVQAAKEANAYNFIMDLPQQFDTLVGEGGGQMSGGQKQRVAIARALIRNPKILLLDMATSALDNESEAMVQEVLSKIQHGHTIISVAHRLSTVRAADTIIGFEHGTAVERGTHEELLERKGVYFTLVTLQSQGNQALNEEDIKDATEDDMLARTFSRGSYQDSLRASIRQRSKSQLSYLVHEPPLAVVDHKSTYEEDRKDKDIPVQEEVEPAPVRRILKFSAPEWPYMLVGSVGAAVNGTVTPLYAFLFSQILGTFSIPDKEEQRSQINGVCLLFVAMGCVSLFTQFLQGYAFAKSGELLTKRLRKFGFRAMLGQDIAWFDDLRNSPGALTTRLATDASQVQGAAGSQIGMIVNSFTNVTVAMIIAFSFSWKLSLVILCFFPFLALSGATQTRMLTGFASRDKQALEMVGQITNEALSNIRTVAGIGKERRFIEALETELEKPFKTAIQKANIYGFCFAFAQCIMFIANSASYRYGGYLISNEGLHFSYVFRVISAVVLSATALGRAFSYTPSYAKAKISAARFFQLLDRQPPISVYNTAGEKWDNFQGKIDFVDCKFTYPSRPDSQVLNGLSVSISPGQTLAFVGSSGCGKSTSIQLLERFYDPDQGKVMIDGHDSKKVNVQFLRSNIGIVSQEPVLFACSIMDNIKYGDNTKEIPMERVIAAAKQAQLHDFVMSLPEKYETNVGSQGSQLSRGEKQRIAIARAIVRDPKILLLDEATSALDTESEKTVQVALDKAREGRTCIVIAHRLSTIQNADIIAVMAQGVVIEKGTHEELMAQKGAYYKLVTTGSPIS

[11] = molecular target: T4, BCRP (Homo sapiens, UniProt Q9UNQ0); test: Efflux assay approach 1: canalicular accumulation in wild-type HEPARG® hepatocytes with or without KO143 (BCRP inhibitor); format: cell-based; conditions: 3 hours at 37° C., FIG. 4 image C
T4 construct: both uptake transporters and efflux transporters, such as BSEP, MRP2, Pgp and BCRP; host or cells: differentiated wild-type HepaRG hepatocytes
T4 sequence (Q9UNQ0 1-655): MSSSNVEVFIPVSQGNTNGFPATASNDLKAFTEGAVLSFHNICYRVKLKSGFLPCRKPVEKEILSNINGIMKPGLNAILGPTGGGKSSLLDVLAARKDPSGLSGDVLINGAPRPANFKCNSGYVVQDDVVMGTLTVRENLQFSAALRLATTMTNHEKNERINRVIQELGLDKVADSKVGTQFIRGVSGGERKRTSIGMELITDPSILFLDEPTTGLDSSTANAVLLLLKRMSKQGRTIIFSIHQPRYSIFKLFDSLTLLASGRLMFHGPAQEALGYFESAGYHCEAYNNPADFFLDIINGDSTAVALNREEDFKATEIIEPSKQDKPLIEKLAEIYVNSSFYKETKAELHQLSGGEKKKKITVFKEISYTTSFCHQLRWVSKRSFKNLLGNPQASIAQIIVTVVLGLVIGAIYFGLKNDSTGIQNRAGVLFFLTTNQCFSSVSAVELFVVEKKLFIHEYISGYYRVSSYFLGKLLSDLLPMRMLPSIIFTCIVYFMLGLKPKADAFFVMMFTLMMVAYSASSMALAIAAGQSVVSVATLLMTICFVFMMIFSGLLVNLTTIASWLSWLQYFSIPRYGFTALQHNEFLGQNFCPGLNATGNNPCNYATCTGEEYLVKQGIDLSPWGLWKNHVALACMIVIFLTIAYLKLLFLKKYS
Protocol: as §1

[12] = molecular target: T5, Pgp (Homo sapiens, UniProt P08183); test: Efflux assay approach 1: canalicular accumulation in wild-type HEPARG® hepatocytes with or without Verapamil (Pgp inhibitor); format: cell-based; conditions: 3 hours at 37° C., FIG. 4 image D
T5 construct: both uptake transporters and efflux transporters, such as BSEP, MRP2, Pgp and BCRP; host or cells: differentiated wild-type HepaRG hepatocytes
T5 sequence (P08183 whole entry): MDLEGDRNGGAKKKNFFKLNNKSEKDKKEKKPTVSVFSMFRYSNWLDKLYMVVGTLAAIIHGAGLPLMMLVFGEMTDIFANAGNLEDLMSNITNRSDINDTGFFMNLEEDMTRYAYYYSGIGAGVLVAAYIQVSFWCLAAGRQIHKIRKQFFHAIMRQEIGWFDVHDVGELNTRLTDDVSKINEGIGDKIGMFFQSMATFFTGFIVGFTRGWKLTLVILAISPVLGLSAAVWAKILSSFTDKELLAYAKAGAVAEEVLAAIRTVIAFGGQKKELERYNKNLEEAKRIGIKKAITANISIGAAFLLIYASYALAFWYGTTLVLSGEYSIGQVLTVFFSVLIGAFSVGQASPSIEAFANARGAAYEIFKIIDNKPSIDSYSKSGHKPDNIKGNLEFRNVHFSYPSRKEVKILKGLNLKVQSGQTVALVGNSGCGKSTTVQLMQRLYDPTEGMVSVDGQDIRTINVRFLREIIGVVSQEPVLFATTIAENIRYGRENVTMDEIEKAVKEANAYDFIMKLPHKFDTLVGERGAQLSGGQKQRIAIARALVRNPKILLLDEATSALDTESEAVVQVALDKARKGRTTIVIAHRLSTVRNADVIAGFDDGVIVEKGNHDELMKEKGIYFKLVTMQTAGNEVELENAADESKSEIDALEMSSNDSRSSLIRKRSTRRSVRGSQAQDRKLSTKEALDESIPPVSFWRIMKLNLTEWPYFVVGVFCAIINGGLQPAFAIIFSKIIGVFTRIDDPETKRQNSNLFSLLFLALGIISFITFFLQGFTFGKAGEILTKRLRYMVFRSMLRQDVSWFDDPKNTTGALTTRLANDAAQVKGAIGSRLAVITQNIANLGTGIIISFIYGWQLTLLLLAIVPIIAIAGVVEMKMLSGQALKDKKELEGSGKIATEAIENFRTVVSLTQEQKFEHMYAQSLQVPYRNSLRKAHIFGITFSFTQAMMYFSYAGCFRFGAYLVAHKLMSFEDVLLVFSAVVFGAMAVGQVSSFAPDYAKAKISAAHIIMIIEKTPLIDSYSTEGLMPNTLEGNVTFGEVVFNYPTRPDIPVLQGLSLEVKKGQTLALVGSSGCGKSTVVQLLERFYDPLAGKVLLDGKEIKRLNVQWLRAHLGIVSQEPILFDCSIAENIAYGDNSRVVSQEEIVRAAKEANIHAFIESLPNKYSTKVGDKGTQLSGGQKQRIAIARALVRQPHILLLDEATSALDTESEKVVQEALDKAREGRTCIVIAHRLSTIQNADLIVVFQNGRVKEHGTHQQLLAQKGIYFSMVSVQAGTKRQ
Protocol: as §1

[13] = molecular target: T3, BSEP; test: Efflux assay approach 2: uptake in ABC transporter vesicles (Sf9) in the presence of ATP or AMP; format: in vitro ADME; design: purchased Genomembrane GM3010, GM3030 and GM3050 (reagent kits); host or cells: Sf9 cells; conditions: 10 minutes, FIG. 6
Protocol: Fluorescent probes were incubated with vesicles at 1 and 10 μM during 10 minutes, while the reference substrates were incubated at the test conditions indicated above. • Approach 3: specificity assessment with HEPARG® MRP2 KO
Transporter assay. Reagent kits for Vesicular Transport Assay from Genomembrane (GM3010, GM3030 and GM3050) were used to determine the specificity of ABC transporters versus tested probes.
The vesicles transfected with BSEP transporter were incubated with the 2 probes 54 and 55 in the presence of ATP or AMP in order to determine the interaction specificity between the probe and the transporter.
Target sequence in this assay (O95342 whole entry, species assumed): as the sequence (O95342 whole entry) above

[14] = molecular target: T2, MRP2; test: Efflux assay approach 3: canalicular accumulation in HEPARG® MRP2 KO and wild-type cells; conditions: for dependence of canalicular efflux on ABC transporter MRP2: conclusion from MRP2 KO accumulation profile; for accumulation / fluorescence intensity in the BC of HEPARG® MRP2 KO cells: probes 1 to 5 μM or 3 μM CDFDA, 37° C., 30 min, FIG. 7
Protocol: as §2, §3, §4, §5, §6

[15] = system: OATs; test: Uptake evaluation, Test group 2: probe uptake in PHH with Indomethacine/Diclofenac (OATs inhibitor); conditions: PHH pre-incubated 20 minutes with inhibitor, probe 5 μM, 30 minutes at 37° C.

Molecule: CC(=O)Nc1ccc(O)cc1 [Acetaminophen]
- Protocol 1 Effects on BC morphology and BA transporters CDFDA ([1]; drug 3 hours at 37° C., then probe CDFDA 3 μM 30 min, FIG. 8A): No effect
- Theoretical effect: Induced effect on BC [2]: None
- Theoretical effect: Efflux transporters interaction [3]: None

Molecule: COc1ccccc1Oc1c(NS(=O)(=O)c2ccc(C(C)(C)C)cc2)nc(-c2ncccn2)nc1OCCO [Bosentan]
- alteration of bile canaliculi (BC) revealed by fluorescent probe 15 [1]: important dilation
- Theoretical effect: Induced effect on BC [2]: dilation
- Theoretical effect: Efflux transporters interaction [3]: MRP2/BSEP

Molecule: CN(C)CCCN1c2ccccc2Sc2ccc(Cl)cc21 [Chlorpromazine]
- alteration of bile canaliculi (BC) revealed by fluorescent probe 15 ([1]; listed as CPZ): remarkable constriction of BC; also recorded: detectable constriction of BC
- Theoretical effect: Induced effect on BC [2]: constriction
- Theoretical effect: Efflux transporters interaction [3]: MRP2/BSEP

Molecule: COC(=O)[C@H](CCCCNc1ccc([N+](=O)[O-])c2nonc12)NC(=O)CC[C@@H](C)C1CCC2C3C(CC[C@@]21C)[C@@]1(C)CC[C@@H](O)CC1C[C@@H]3O (stereo partly drawn) [Compound 15, Methyl-N2-((4R)-4-((3R,7S,10S,13R)-3,7-dihydroxy-10,13-dimethylhexadecahydro-1H-cyclopenta[a]phenanthren-17-yl)pentanoyl)-N6-(7-nitrobenzo[c][1,2,5]oxadiazol-4-yl)-L-lysinate]
- % Active uptake (Mean value) ([4]; human, 30 min, 5 μM, pH 7.4): 31%
- % of inhibition Myrcludex (NTCP inhibitor) [5]: 16%
- % of inhibition Mpp (OCT inhibitor) [6]: 11%
- % of inhibition Rifampicine (OATPs inhibitor) [7]: 34%
- involvement of OATs in the uptake of the probe [8]: mainly dependent on OAT family
- dependence of canalicular efflux on ABC transporter MRP2 [9]: independent
- dependence of efflux into BC on BSEP [10]: weakly dependent on BSEP
- probe fluorescence / accumulation in BC with taurocholate [10]: partial inhibition profile

Molecule: COC(=O)C(CCCCNC(=O)CCc1ccc2n1[B-](F)(F)[N+]1=C(C)C=C(C)C1=C2)NC(=O)CCC(C)C1CCC2C3C(O)CC4CC(O)CCC4(C)C3CCC12C [Compound 54, Methyl N6-(3-(5,5-difluoro-7,9-dimethyl-5H-dipyrrolo[1,2-c:2′,1′-f][1,3,2]diazaborinin-3-yl)propanoyl)-N2-((4R)-4-((3R,7S,10S,13R,17R)-3,7-dihydroxy-10,13-dimethylhexadecahydro-1H-cyclopenta[a]phenanthren-17-yl)pentanoyl)-L-lysinate]
- type of probe uptake (active transport or passive diffusion) [4]: mainly mediated by transporters
- BC accumulation with inhibitor of BCRP (KO143) versus control cells [11]: no visible difference
- BC accumulation with inhibitor of Pgp (Verapamil) versus control cells [12]: no visible difference
- uptake in vesicles ATP/AMP ([13]; whatever probe concentrations (1 and 10 μM)): no difference
- dependence of canalicular efflux on ABC transporter MRP2 [14]: independent
- accumulation / fluorescence intensity in the BC of HEPARG® MRP2 KO cells [14]: stronger fluorescence intensity
- dependence of efflux into BC on BSEP [10]: substrate of BSEP
- probe fluorescence / accumulation in BC with taurocholate [10]: significant decrease
- accumulation of probe fluorescence in BC of HEPARG® hepatocytes ([10]; without any inhibitor, FIG. 4 image A): significant accumulation

Molecule: COC(=O)CNC(=O)C(CCCCNC(=O)CCc1ccc2n1[B-](F)(F)[N+]1=C(C)C=C(C)C1=C2)NC(=O)CCC(C)C1CCC2C3C(O)CC4CC(O)CCC4(C)C3CCC12C [Compound 55, Methyl-N6-(3-(5,5-difluoro-7,9-dimethyl-5H-dipyrrolo[1,2-c:2′,1′-f][1,3,2]diazaborinin-3-yl)propanoyl)-N2-((4R)-4-((3R,7S,10S,13R,17R)-3,7-dihydroxy-10,13-dimethylhexadecahydro-1H-cyclopenta[a]phenanthren-17-yl)pentanoyl)-L-lysylglycinate]
- type of probe uptake (active transport or passive diffusion) [4]: mainly mediated by transporters
- BC accumulation with inhibitor of BCRP (KO143) versus control cells [11]: independent
- BC accumulation with inhibitor of Pgp (Verapamil) versus control cells [12]: independent
- uptake inside the membrane vesicles in the presence of ATP compared to AMP ([13]; probe at 10 μM): significant uptake
- dependence of canalicular efflux on ABC transporter MRP2 [14]: independent
- accumulation / fluorescence intensity in the BC of HEPARG® MRP2 KO cells [14]: stronger fluorescence intensity

Molecule: O=S(=O)(c1cccc2cnccc12)N1CCCNCC1 [Fasudil]
- Theoretical effect: Efflux transporters interaction [3]: No

Molecule: Cc1c(C)c2c(c(C)c1O)CCC(C)(COc1ccc(CC3SC(=O)NC3=O)cc1)O2 (centres unmarked) [Troglitazone]
- Theoretical effect: Induced effect on BC [2]: constriction

Molecule: Tauro-nor-THCA-24-DBD [reference compound]
- % of inhibition Myrcludex (NTCP inhibitor) [5]: 81%
- % of inhibition Mpp (OCT inhibitor) [6]: 26%
- % of inhibition Rifampicine (OATPs inhibitor) [7]: 24%
- % of inhibition Indomethacine/Diclofenac (OATs inhibitor) [15]: 50%
